Data taken from patent US11661410B2 (GLOBAL BLOOD THERAPEUTICS, INC., priority 2017, dated 2023).
Counter-ions that a name gives are not always drawn. Like-named read-outs stand apart in the source and are kept apart here.

How the values were obtained:
muscarinic M2 receptor = muscarinic M2 receptor (Homo sapiens (Human), UniProt P08172); assay: Safety pharmacological profiling: muscarinic M2 receptor ligand binding; conditions: compound at 10 μM, in duplicate; ligand binding to cell membranes; read-out: Muscarinic M2 percent inhibition
G9a = G9a (Homo sapiens (Human), UniProt Q96KQ7); assay: G9a AlphaLISA enzymatic activity assay; format: biochemical
[1] = G9a AlphaLISA, negative log of the IC50 value in molar

Chain of G9a (Q96KQ7 whole entry): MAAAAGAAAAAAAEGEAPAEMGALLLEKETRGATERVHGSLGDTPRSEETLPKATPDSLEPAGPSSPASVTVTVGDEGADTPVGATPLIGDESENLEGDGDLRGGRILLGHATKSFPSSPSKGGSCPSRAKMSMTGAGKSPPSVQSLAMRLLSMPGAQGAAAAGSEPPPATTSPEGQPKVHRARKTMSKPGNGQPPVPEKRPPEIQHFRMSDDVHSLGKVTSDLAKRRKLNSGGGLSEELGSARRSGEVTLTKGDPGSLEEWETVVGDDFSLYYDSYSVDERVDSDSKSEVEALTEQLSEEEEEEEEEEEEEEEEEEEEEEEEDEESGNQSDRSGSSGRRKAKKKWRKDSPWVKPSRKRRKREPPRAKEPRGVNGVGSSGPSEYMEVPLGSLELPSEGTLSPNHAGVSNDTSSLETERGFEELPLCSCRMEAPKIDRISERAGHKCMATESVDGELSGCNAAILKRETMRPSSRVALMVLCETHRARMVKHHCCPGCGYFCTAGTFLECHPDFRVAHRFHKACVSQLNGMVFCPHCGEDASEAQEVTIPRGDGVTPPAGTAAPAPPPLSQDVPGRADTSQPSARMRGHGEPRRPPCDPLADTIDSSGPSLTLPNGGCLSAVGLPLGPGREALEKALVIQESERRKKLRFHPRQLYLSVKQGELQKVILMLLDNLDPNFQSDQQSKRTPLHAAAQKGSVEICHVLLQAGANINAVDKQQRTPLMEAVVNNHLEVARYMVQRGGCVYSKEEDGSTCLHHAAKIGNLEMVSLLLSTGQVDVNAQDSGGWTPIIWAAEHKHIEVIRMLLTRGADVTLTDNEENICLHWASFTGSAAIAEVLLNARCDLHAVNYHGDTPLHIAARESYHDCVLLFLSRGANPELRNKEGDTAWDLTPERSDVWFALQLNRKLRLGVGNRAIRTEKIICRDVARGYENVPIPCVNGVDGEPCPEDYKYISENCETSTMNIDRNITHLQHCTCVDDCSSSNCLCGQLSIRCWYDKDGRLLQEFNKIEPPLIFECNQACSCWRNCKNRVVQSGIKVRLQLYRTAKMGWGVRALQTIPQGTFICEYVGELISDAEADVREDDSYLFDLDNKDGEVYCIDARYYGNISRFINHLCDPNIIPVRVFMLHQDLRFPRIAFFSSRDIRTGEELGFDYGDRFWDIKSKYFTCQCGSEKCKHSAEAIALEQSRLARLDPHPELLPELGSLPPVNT
Chain of muscarinic M2 receptor (P08172 whole entry): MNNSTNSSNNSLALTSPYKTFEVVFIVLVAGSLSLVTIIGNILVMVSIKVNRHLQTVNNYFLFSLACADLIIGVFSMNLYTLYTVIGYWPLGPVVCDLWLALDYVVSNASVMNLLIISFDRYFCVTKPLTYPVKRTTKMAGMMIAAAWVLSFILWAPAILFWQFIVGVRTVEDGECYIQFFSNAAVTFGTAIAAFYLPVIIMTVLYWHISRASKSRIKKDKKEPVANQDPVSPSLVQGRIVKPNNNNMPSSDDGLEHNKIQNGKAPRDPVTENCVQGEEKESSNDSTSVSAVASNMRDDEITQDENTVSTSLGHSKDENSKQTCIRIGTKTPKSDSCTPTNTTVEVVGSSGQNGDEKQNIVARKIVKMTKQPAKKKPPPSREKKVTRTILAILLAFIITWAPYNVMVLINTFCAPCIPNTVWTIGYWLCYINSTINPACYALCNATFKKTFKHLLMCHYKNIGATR

Row | Compound | pIC50 (G9a; [1]) | also measured
1 | COc1cc2nc3c(c(N[C@H]4CNC[C@@H](C)C4)c2cc1OC)CCC3 [drawing 588] |  | inhibition at 10 µM (muscarinic M2 receptor): 75%
2 | COc1cc2nc3c(c(N[C@@H]4CNCC(F)(F)C4)c2cc1OC)CCC3 [Example 413, (3S)-N-{6,7-dimethoxy-1H,2H,3H-cyclopenta[b]quinolin-9-yl}-5,5-difluoropiperidin-3-amine] |  | IC50 (G9a; [1]): > 10 µM
3 | COc1cc2nc3c(c(N[C@@H]4CCCNC4)c2cc1OC)CCC3 [Example 29] | 6.81 | 
4 | COc1cc2nc3c(c(NC4CCN(Cc5ccccc5)CC4)c2cc1OC)CCC3 [Example 45] | 7.07 | 
5 | COc1cc2c(NC3CCN(C(C)C)CC3)c3c(nc2cc1O)CCC3 [Example 35] | 7.94 | 
6 | COc1cc2nc3c(c(NC4CCN(C(C)C)CC4)c2nc1OC)CCC3 [Example 134, N-[2,3-dimethoxy-6H,7H,8H-cyclopenta[b]1,5-naphthyridin-9-yl]-1-(propan-2-yl)piperidin-4-amine] | 6.8 | 
7 | COc1cc2nc3c(c(N[C@H]4CNC[C@@H](F)C4)c2cc1OC)CCC3 [Example 412, (3R,5S)-N-{6,7-dimethoxy-1H,2H,3H-cyclopenta[b]quinolin-9-yl}-5-fluoropiperidin-3-amine] | 6.5 | 
8 | COc1cc2c(NC(C)C)c3c(nc2cc1OCCOCCO)CCC3 [Example 6] | 5 | 
9 | COc1cc2nc3c(c(N[C@H]4CCCNC4)c2cc1OC)CCC3 [Example 28] | 6.66 | 
10 | COc1cc2c(NC3CCN(C(C)C)CC3)c3c(nc2cc1C1CC1)CCC3 [Example 57, N-{6-cyclopropyl-7-methoxy-1H,2H,3H-cyclopenta[b]quinolin-9-yl}-1-(propan-2-yl)piperidin-4-amine] | 6.72 | 
11 | COc1cc2nc3c(c(NC4CCN(C5CCOCC5)CC4)c2cc1OC)CCC3 [Example 16, hydrochloride] | 7.27 | 
12 | COc1cc2nc3c(c(NCc4cn(C)cn4)c2cc1OC)CCC3 [Example 41] |  | pIC50 (G9a): 5.32
13 | COc1cc2nc3c(c(NC4CCN(c5cccc(Cl)c5)CC4)c2cc1OC)CCC3 [Example 50] | 5.53 | 
14 | CCOc1cc2nc3c(c(N[C@@H]4CCCNC4)c2cc1OC)CCC3 [Example 407, (3R)-N-{6-ethoxy-7-methoxy-1H,2H,3H-cyclopenta[b]quinolin-9-yl}piperidin-3-amine] | 7 | 
15 | COc1cc2nc3c(c(NCC4CCNCC4)c2cc1OC)CCC3 [Example 67, 6,7-dimethoxy-N-[(piperidin-4-yl)methyl]-1H,2H,3H-cyclopenta[b]quinolin-9-amine] | 7 | 
16 | COc1cc2nc3c(c(NC[C@@H]4CCCNC4)c2cc1OC)CCC3 [Example 68, 6,7-dimethoxy-N-{[(3R)-piperidin-3-yl]methyl}-1H,2H,3H-cyclopenta[b]quinolin-9-amine] | 6.9 | 
17 | COc1cc2nc3c(c(N[C@@H]4CCCN(C)C4)c2cc1OC)CCC3 |  | pIC50 (G9a): 5.48
18 | COc1cc2nc3c(c(NC4CCN(c5ccccc5Cl)CC4)c2cc1OC)CCC3 |  | pIC50 (G9a): 6.72
19 | COc1cc2c(NC(C)C)c3c(nc2cc1OCCCCCO)CCC3 [Example 21] | 5.3 | 
20 | COc1cc2nc3ccccc3c(NC3CCN(C(C)C)CC3)c2cc1OC [Example 47] |  | pIC50 (G9a): 7.1

Row | Compound | pIC50 (G9a; [1]) | also measured
21 | COc1cc2nc3c(c(NC4CCN(c5ccccc5)CC4)c2cc1OC)CCC3 [Example 14] | 5.55 | 
22 | COc1cc2nc3c(c(NC4CCN(c5cccc(F)c5)CC4)c2cc1OC)CCC3 [Example 25] | 5.87 | 
23 | COc1cc2nc3c(c(N[C@H]4CNC[C@@H](C)C4)c2cc1OC)CCC3 [Example 286, (3R,5S)-N-{6,7-dimethoxy-1H,2H,3H-cyclopenta[b]quinolin-9-yl}-5-methylpiperidin-3-amine] | 8 | 
24 | COc1cc2nc3c(c(NC4CN(C(=O)OC(C)(C)C)C4)c2cc1OC)CCC3 [Example 12] | 5.5 | 
25 | COc1cc2nc3c(c(N[C@@H]4CNCC(C)(C)C4)c2cc1OC)CCC3 [Example 415, (3S)-N-{6,7-dimethoxy-1H,2H,3H-cyclopenta[b]quinolin-9-yl}-5,5-dimethylpiperidin-3-amine] |  | IC50 (G9a; [1]): > 10 µM
26 | CCN1CCC[C@@H](Nc2c3c(nc4cc(OC)c(OC)cc24)CCC3)CC1 [Example 64, (4R)-N-{6,7-dimethoxy-1H,2H,3H-cyclopenta[b]quinolin-9-yl}-1-ethylazepan-4-amine] | 7.6 | 
27 | COc1cc2nc3c(c(NC4CCN(c5ccncc5F)CC4)c2cc1OC)CCC3 [Example 55, N-{6,7-dimethoxy-1H,2H,3H-cyclopenta[b]quinolin-9-yl}-1-(3-fluoropyridin-4-yl)piperidin-4-amine] | 6.05 | 
28 | COc1cc2nc3c(c(NC4CCN(C(CO)CCl)CC4)c2cc1OC)CCC3 (centres unmarked) [Example 44] | 5.49 | 
29 | CCN1CC(Nc2c3c(nc4cc(OC)c(OC)cc24)CCC3)C1 [Example 27] | 8.08 | 
30 | COc1cc2nc3c(c(N[C@@H]4CCCN(C)CC4)c2nc1OC)CCC3 [Example 165, (4R)-N-{2,3-dimethoxy-6H,7H,8H-cyclopenta[b]1,5-naphthyridin-9-yl}-1-methylazepan-4-amine] | 7 | 
31 | COc1cc2c(NC3CCN(C(C)C)CC3)c3c(nc2cc1OCCCO)CCC3 [Example 51] | 6.45 | 
32 | N-[(azetidin-3-yl)methyl]-6,7-dimethoxy-1H,2H,3H-cyclopenta[b]quinolin-9-amine—2HCl [Example 8] |  | pIC50 (G9a): 7.27
33 | COc1cc2nc3c(c(NC(C)C)c2cc1OC)CCC3 [Example 1, 6,7-dimethoxy-N-(propan-2-yl)-1H,2H,3H-cyclopenta[b]quinolin-9-amine formate] | 5.97 | 
34 | COc1cc2nc3c(c(NCC4CN(C)C4)c2cc1OC)CCC3 [Example 11] | 7.49 | 
35 | COc1cc2nc3c(c(NCC4CCCN4)c2cc1OC)CCC3 (centres unmarked) [Example 66, 6,7-dimethoxy-N-[(pyrrolidin-2-yl)methyl]-1H,2H,3H-cyclopenta[b]quinolin-9-amine] | 7.3 | 
36 | COc1cc2nc3c(c(N[C@H]4CCCN(C)C4)c2cc1OC)CCC3 [Example 30] | 7.83 | 
37 | COc1cc2nc3c(c(N[C@H]4CNC[C@H](C)C4)c2cc1OC)CCC3 [Example 409, (3R,5R)-N-{6,7-dimethoxy-1H,2H,3H-cyclopenta[b]quinolin-9-yl}-5-methylpiperidin-3-amine] | 7.9 | 
38 | COc1cc2nc3c(c(NC4CCN(C(N)=O)CC4)c2cc1OC)CCC3 [Example 58, 4-({6,7-dimethoxy-1H,2H,3H-cyclopenta[b]quinolin-9-yl}amino)piperidine-1-carboxamide] | 6.12 | 
39 | COc1cc2nc3c(c(NC[C@@H]4C[C@H](F)CN4)c2cc1OC)CCC3 [Example 411, N-{[(2S,4S)-4-fluoropyrrolidin-2-yl]methyl}-6,7-dimethoxy-1H,2H,3H-cyclopenta[b]quinolin-9-amine] | 6.3 | 
40 | COc1cc2nc3c(c(NC4CCCNC4)c2cc1OC)CCC3 (centres unmarked) [Example 10] | 7.66 | 

Row | Compound | pIC50 (G9a; [1]) | also measured
41 | COc1cc2nc3c(c(N[C@@H]4CCCN(C)C4)c2nc1OC)CCC3 [Example 164, (3R)-N-[2,3-dimethoxy-6H,7H,8H-cyclopenta[b]1,5-naphthyridin-9-yl]-1-methylpiperidin-3-amine] | 6.2 | 
42 | COc1cc2nc3c(c(NC4CCN(c5ccc(F)cc5)CC4)c2cc1OC)CCC3 | 6.85 | 
43 | COc1cc2c(NC3CCN(C(C)C)CC3)c3c(nc2cc1OC(F)F)CCC3 [Example 36] | 5.42 | 
44 | COc1cc2nc3c(c(N[C@@H]4CCCCNC4)c2nc1OC)CCC3 [Example 402] | 7.1 | 
45 | COc1cc2nc3c(c(NCCNC(C)C)c2cc1OC)CCC3 [Example 403, 6,7-dimethoxy-N-{2-[(propan-2-yl)amino]ethyl}-1H,2H,3H-cyclopenta[b]quinolin-9-amine] | 7.5 | 
46 | COc1cc2nc3c(c(N[C@H]4CNCC(C)(C)C4)c2cc1OC)CCC3 [Example 414, (3R)-N-{6,7-dimethoxy-1H,2H,3H-cyclopenta[b]quinolin-9-yl}-5,5-dimethylpiperidin-3-amine] | 7.2 | 
47 | COc1cc2nc3c(c(NC4CCN(c5cccc(F)c5F)CC4)c2cc1OC)CCC3 [Example 59, 1-(2,3-difluorophenyl)-N-{6,7-dimethoxy-1H,2H,3H-cyclopenta[b]quinolin-9-yl}piperidin-4-amine] | 5.3 | 
48 | CC(C)N1CCC(Nc2c3c(nc4cc5c(cc24)OCO5)CCC3)CC1 [Example 20] | 7.53 | 
49 | COc1cc2nc3c(c(N[C@@H]4CCCNC4)c2nc1OC)CCC3 [Example 149, (3R)-N-[2,3-dimethoxy-6H,7H, 8Hcyclopenta[b]1,5naphthyridin-9-yl]piperidin-3-amine] | 7.2 | 
50 | COc1cc2nc3c(c(NC4CCN(C(=O)COCc5ccccc5)CC4)c2cc1OC)CCC3 [Example 52] | 6.39 | 
51 | COc1cc2c(NC3CCN(C(C)C)CC3)c3c(nc2cc1OCCO)CCC3 [Example 53, 2-[(7-methoxy-9-{[1-(propan-2-yl)piperidin-4-yl]amino}-1H,2H,3H-cyclopenta[b]quinolin-6-yl)oxy]ethan-1-ol] | 6.54 | 
52 | COc1cc2nc3c(c(N[C@@H]4CCCN(C)CC4)c2cc1OC)CCC3 [Example 63, (4R)-N-{6,7-dimethoxy-1H,2H,3H-cyclopenta[b]quinolin-9-yl}-1-methylazepan-4-amine] | 7.5 | 
53 | CNc1c2c(nc3cc(OCCCOC)c(OC)cc13)CCC2 [Example 3] | 5.53 | 
54 | COc1cc2c(NC(C)C)c3c(nc2cc1OCCCC(C)O)CCC3 (centres unmarked) [Example 31] | 6.23 | 
55 | COc1cc2nc3c(c(NC4CCN(C)CC4)c2cc1OC)CCC3 [Example 9] | 7.31 | 
56 | COc1cc2nc3c(c(N[C@@H]4CCCCN(C)C4)c2nc1OC)CCC3 [Example 404, (3R)-N-[2,3-dimethoxy-6H,7H,8H-cyclopenta[b]1,5-naphthyridin-9-yl]-1-methylazepan-3-amine] | 6.6 | 
57 | COc1cc2nc3c(c(NC4CC5(C4)CN(C(=O)OC(C)(C)C)C5)c2cc1OC)CCC3 [Example 17] | 5.5 | 
58 | COc1cc2nc3ccccc3c(NC3CCN(C(C)C)CC3)c2cc1OC [Example 46] |  | pIC50 (G9a): 6.75
59 | COc1cc2nc3c(c(NCC4CC(N(C)C)C4)c2cc1OC)CCC3 (centres unmarked) | 5.24 | 
